Values quoted from earlier work as cited in patent US7947677B2, “Spirolactam tricyclic CGRP receptor antagonists” (Merck Sharp & Dohme Corp., priority 2005, dated 2011).
No end group written: not given here.

Columns and labels:
facial blood flow [1] = settings: rat, trigeminal ganglion stimulation (Escott et al. 1995)
middle meningeal artery = settings: rats, electrical stimulation of the dura mater, prior administration (Williamson et al. 1997)
facial blood flow [2] = settings: marmoset, electrical stimulation of the trigeminal ganglion (Doods et al. 2000)

Compound | increased facial blood flow (facial blood flow [1]) | increase of the diameter of the middle meningeal artery (middle meningeal artery) | increase in facial blood flow (facial blood flow [2])
CGRP(8-37): a fragment of CGRP that lacks seven N-terminal amino acid residues; a peptide CGRP antagonist (VTHRLAGLLSRSGGVVKNNFVPTNVGSKAF; ends and bridges not checked; UniProt P06881 90-119, looked up, fragment) | inhibited | blocked | 
NCCCC[C@H](NC(=O)[C@@H](Cc1cc(Br)c(O)c(Br)c1)NC(=O)N1CCC(N2Cc3ccccc3NC2=O)CC1)C(=O)N1CCN(c2ccncc2)CC1 [BIBN4096BS] |  |  | blocked
